Measured values from ChEMBL document CHEMBL2439957, “Design and synthesis of novel pyrimidone analogues as HIV-1 integrase inhibitors” (Bioorg Med Chem Lett, 2013).
Each block holds one molecule with its values, some of them ahead of it.

What was measured:
[1] = target: T1, Human immunodeficiency virus type 1 integrase (Human immunodeficiency virus 1, UniProt Q7ZJM1); experiment: Inhibition of Human immunodeficiency virus 1 integrase strand transfer activity after 30 mins by polyacrylamide gel electrophoresis
[2] = target: T1, Human immunodeficiency virus type 1 integrase; experiment: Inhibition of Human immunodeficiency virus 1 integrase 3'-processing activity after 30 mins by polyacrylamide gel electrophoresis

T1 sequence (Q7ZJM1 whole entry): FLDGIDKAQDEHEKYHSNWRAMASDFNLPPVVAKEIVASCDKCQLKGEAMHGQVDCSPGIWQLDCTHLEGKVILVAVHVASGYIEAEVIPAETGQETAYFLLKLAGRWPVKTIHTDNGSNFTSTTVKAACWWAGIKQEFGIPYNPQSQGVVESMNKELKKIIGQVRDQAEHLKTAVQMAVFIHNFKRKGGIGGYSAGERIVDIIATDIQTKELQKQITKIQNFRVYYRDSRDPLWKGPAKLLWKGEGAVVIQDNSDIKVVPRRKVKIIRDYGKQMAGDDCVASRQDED

SMILES: CC(C)(C)c1nc(C(=O)NCc2ccc(F)cc2)c(O)c(=O)n1CCCNC(=O)c1ccccc1
- IC50 [1]: 13 µM
- IC50 [2]: > 20 µM

SMILES: CCS(=O)(=O)NCCCn1c(C(C)(C)C)nc(C(=O)NCc2ccc(F)cc2)c(O)c1=O
- IC50 [1]: 7 µM
- IC50 [2]: > 20 µM

SMILES: CC(C)(C)c1nc(C(=O)NCc2ccc(F)cc2)c(O)c(=O)n1CCCNC(=O)c1cccs1
- IC50 [1]: 14 µM
- IC50 [2]: > 20 µM

SMILES: CC(C)(C)c1nc(C(=O)NCc2ccc(F)cc2)c(O)c(=O)n1CCCNC(=O)Cc1cccs1
- IC50 [1]: 20 µM
- IC50 [2]: > 20 µM

SMILES: CC(C)(C)c1nc(C(=O)NCc2ccc(F)cc2)c(O)c(=O)n1CCCNC(=O)c1ccco1
- IC50 [1]: 3 µM
- IC50 [2]: > 20 µM

SMILES: Cn1cnc(S(=O)(=O)NCCCn2c(C(C)(C)C)nc(C(=O)NCc3ccc(F)cc3)c(O)c2=O)c1
- IC50 [1]: 12 µM
- IC50 [2]: > 20 µM

SMILES: CC(=O)Nc1ccc(S(=O)(=O)NCCCn2c(C(C)(C)C)nc(C(=O)NCc3ccc(F)cc3)c(O)c2=O)cc1
- IC50 [1]: 8 µM
- IC50 [2]: > 20 µM

SMILES: CC(C)(C)c1nc(C(=O)NCc2ccc(F)cc2)c(O)c(=O)n1CCCNS(=O)(=O)c1ccccc1
- IC50 [1]: 20 µM
- IC50 [2]: > 20 µM

SMILES: CC(C)(C)c1nc(O)c(O)c(C(=O)NCc2ccc(F)cc2)n1
- IC50 [1]: 2 µM
- IC50 [2]: > 20 µM

Second part, the molecule after the results:

- IC50 [1]: > 20 µM
- IC50 [2]: > 20 µM
SMILES: CC(C)(C)OC(=O)NCCCn1c(C(C)(C)C)nc(C(=O)NCc2ccc(F)cc2)c(O)c1=O

- IC50 [1]: > 20 µM
- IC50 [2]: > 20 µM
SMILES: CC(C)(C)c1nc(C(=O)NCc2ccc(F)cc2)c(O)c(=O)n1CCCN

- IC50 [1]: 3 µM
SMILES: CC(C)(C)c1nc(C(=O)NCc2ccc(F)cc2)c(O)c(=O)n1CCCNC(=O)C1CC1 [listing 1 of 2 here]

- IC50 [1]: 2 µM
- IC50 [2]: > 20 µM
SMILES: CC(=O)NCCCn1c(C(C)(C)C)nc(C(=O)NCc2ccc(F)cc2)c(O)c1=O

- IC50 [1]: 6 µM
SMILES: CCC(=O)NCCCn1c(C(C)(C)C)nc(C(=O)NCc2ccc(F)cc2)c(O)c1=O [listing 1 of 2 here]

- IC50 [1]: 20 µM
- IC50 [2]: > 20 µM
SMILES: CCCC(=O)NCCCn1c(C(C)(C)C)nc(C(=O)NCc2ccc(F)cc2)c(O)c1=O

- IC50 [1]: 20 µM
SMILES: CC(C)(C)c1nc(C(=O)NCc2ccc(F)cc2)c(O)c(=O)n1CCCNS(=O)(=O)C1CC1 [listing 1 of 2 here]

- IC50 [1]: 20 µM
- IC50 [2]: > 20 µM
SMILES: CC(C)(C)C(=O)NCCCn1c(C(C)(C)C)nc(C(=O)NCc2ccc(F)cc2)c(O)c1=O

- IC50 [1]: 5 µM
- IC50 [2]: > 20 µM
SMILES: CC(C)(C)c1nc(C(=O)NCc2ccc(F)cc2)c(O)c(=O)n1CCCNC(=O)C1CC1 [listing 2 of 2 here]

- IC50 [1]: 4 µM
- IC50 [2]: > 20 µM
SMILES: CCC(=O)NCCCn1c(C(C)(C)C)nc(C(=O)NCc2ccc(F)cc2)c(O)c1=O [listing 2 of 2 here]

- IC50 [1]: 9 µM
- IC50 [2]: > 20 µM
SMILES: CC(C)(C)c1nc(C(=O)NCc2ccc(F)cc2)c(O)c(=O)n1CCCNS(=O)(=O)C1CC1 [listing 2 of 2 here]
